# Measured values published in ChEMBL document CHEMBL5727003, “Therapeutic inhibitory compounds” (2019).
# Target: Plasma kallikrein (Homo sapiens, UniProt P03952)
# Test: In Vitro Enzyme Inhibition: A 10 mM solution of the test compound was made in DMSO. This solution was serially diluted 1:5 in DMSO to yield 2000, 400, 80, 16, 3.2, 0.64, 0.128, 0.0256 and 0.00512 μM compound test solutions. A control tube containing only DMSO is included. 16 μL of each compound test solution was combined with 384 μL of assay buffer (50 mM Tris-HCl pH 7.5, 150 mM NaCl, 0.01% Triton X-100) to yield a “4× test compound buffer stock”.Separately, a 40 nM solution of human Plasma Kallikrein (Abcam) and a 93.6 μM solution Pro-Phe-Arg-AMC (Bachem) were made using assay buffer. These solutions are hereby referred to as 4×hPK and 2×PFR-AMC, respectively.60 μL of each 4× test compound buffer stock was combined with 60 μL of 4×hPK to yield 120 μL of “2× test compound buffer stock/2×hPK”. 50 μL was removed from this mixture and placed into duplicate wells on a Microfluor 1Black U-bottom microtiter plate (Thermo Scientific). This plate was incubated for 5 minutes at 37° C. To each well, 50 μL of pre-warmed 2×PFR-AMC was added to start the enzymatic reaction. Cleavage of PFR-AMC was monitored in a Biotek Synergy H4 reader set at 37° C. Readings are taken every 43 seconds for 1 hour. The highest mean velocity over 20 reads (˜15 minutes) is used to calculate the IC50. The IC50 is calculated using the Gen5 (Biotek Instruments).
# Chain of Plasma kallikrein (P03952 20-390 limits assumed): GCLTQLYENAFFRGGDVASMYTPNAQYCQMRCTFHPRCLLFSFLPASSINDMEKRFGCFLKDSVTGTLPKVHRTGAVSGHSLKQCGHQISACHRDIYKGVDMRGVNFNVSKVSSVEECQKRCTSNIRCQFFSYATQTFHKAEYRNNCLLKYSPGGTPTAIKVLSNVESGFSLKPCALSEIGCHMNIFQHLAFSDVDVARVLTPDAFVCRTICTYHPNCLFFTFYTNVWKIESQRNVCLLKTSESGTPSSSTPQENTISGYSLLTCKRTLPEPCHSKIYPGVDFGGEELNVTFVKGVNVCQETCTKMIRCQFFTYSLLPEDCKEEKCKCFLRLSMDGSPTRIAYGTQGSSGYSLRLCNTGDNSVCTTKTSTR
# Chain of Plasma kallikrein (P03952 391-638 limits assumed): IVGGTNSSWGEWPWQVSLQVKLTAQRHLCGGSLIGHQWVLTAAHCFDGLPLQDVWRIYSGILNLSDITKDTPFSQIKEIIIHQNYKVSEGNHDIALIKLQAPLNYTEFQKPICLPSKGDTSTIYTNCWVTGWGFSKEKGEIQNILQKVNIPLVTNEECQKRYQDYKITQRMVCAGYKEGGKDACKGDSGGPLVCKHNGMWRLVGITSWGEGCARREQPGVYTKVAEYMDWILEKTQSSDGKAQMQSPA
row,SMILES,IC50 [nM]
1,Cc1cc(N)nc(C)c1CNC(=O)c1cn(Cc2ccc3ncc(Cl)cc3c2)c2cccnc12,< 100
2,Cc1cc(N)nc(C)c1CNC(=O)c1cc(C(F)(F)F)n(Cc2ccc3ncc(Cl)cc3c2)n1,1000 to 10000
3,Cc1cc(N)nc(C)c1CNC(=O)c1nn(Cc2ccc3ncc(Cl)cc3c2)nc1C(F)(F)F,< 100
4,Cc1cc(N)nc(C)c1CNC(=O)c1cn(Cc2ccc3ncc(Cl)cc3c2)c(CO)n1,< 100
5,Cc1cc(N)nc(C)c1CNC(=O)c1ccn(Cc2ccc3ncc(Cl)cc3c2)n1,< 100
